Measurements as given in ChEMBL document CHEMBL1649585, “Role of the Mycobacterium tuberculosis P55 efflux pump in intrinsic drug resistance, oxidative stress responses, and growth” (2009).

Assays:
Format in all cases: functional
[1] = tested on: Mycobacterium tuberculosis; assay: Upregulation of p55 gene expression Mycobacterium tuberculosis by microarray
[2] = tested on: Mycobacterium tuberculosis; assay: Downregulation of p55 gene expression Mycobacterium tuberculosis by microarray
[3] = tested on: Mycobacterium tuberculosis; assay: Upregulation of p27 gene expression in Mycobacterium tuberculosis by microarray
[4] = tested on: Mycobacterium tuberculosis; assay: Downregulation of p27 gene expression Mycobacterium tuberculosis by microarray

Measured: fold change (FC)

CN(C)CCCN1c2ccccc2Sc2ccc(Cl)cc21 [CHLORPROMAZINE]
>=2: all assays above

CO[C@@H]1[C@@H](OC(N)=O)[C@@H](O)[C@H](Oc2ccc3c(O)c(NC(=O)c4ccc(O)c(CC=C(C)C)c4)c(=O)oc3c2C)OC1(C)C [NOVOBIOCIN]
>=2: all assays above

O=[N+]([O-])c1cn2c(n1)OC[C@@H](OCc1ccc(OC(F)(F)F)cc1)C2 [PRETOMANID]
>=2: all assays above

Oc1cc(Cl)ccc1Oc1ccc(Cl)cc1Cl [TRICLOSAN]
>=2: all assays above

CC(C)/N=c1\cc2n(-c3ccc(Cl)cc3)c3ccccc3nc-2cc1Nc1ccc(Cl)cc1 [CLOFAZIMINE]
>=2: all assays above

CC(C)[C@@H]1NC(=O)[C@H](C)OC(=O)[C@@H](C(C)C)NC(=O)[C@@H](C(C)C)OC(=O)[C@H](C(C)C)NC(=O)[C@H](C)OC(=O)[C@@H](C(C)C)NC(=O)[C@@H](C(C)C)OC(=O)[C@H](C(C)C)NC(=O)[C@H](C)OC(=O)[C@@H](C(C)C)NC(=O)[C@@H](C(C)C)OC1=O [VALINOMYCIN]
>=2: all assays above

CC1=CC(=O)c2ccccc2C1=O [MENADIONE]
>=2: all assays above

CSc1ccc2c(c1)N(CCC1CCCCN1C)c1ccccc1S2 (configuration not stated) [THIORIDAZINE]
>=2: all assays above
